Results published in ChEMBL document CHEMBL1955760, “Pyrrolovesamicols--synthesis, structure and VAChT binding of two 4-fluorobenzoyl regioisomers” (Bioorg Med Chem Lett, 2012).

What was measured:
[1] = target: T1, Vesicular acetylcholine transporter (Homo sapiens, UniProt Q16572); assay: Binding affinity to VAchT
T1 sequence (Q16572 whole entry): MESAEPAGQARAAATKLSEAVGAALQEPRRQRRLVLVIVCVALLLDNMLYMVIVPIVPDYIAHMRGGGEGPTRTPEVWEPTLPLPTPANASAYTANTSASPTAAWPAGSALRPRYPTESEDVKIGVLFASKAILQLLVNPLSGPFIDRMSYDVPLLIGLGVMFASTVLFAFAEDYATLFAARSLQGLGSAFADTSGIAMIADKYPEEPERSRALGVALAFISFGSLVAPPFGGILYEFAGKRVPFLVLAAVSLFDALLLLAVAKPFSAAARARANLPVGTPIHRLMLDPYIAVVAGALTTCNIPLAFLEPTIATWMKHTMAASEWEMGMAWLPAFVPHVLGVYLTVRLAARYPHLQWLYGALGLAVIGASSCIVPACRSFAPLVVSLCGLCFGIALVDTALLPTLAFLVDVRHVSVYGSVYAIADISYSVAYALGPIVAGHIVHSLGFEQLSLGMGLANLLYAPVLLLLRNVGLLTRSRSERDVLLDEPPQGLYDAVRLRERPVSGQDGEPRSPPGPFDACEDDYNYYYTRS

[2] = target: T1, Vesicular acetylcholine transporter; assay: Binding affinity to VAchT transfected in rat PC12 cells; type: cell-based, PC-12
[3] = target: T2, Vesicular acetylcholine transporter (Rattus norvegicus, UniProt Q62666); assay: Displacement of (-)-[3H]vesamicol from rat VAchT transfected in rat PC12 cells after 2 hrs by scintillation counting; type: cell-based, PC-12
T2 sequence (Q62666 whole entry): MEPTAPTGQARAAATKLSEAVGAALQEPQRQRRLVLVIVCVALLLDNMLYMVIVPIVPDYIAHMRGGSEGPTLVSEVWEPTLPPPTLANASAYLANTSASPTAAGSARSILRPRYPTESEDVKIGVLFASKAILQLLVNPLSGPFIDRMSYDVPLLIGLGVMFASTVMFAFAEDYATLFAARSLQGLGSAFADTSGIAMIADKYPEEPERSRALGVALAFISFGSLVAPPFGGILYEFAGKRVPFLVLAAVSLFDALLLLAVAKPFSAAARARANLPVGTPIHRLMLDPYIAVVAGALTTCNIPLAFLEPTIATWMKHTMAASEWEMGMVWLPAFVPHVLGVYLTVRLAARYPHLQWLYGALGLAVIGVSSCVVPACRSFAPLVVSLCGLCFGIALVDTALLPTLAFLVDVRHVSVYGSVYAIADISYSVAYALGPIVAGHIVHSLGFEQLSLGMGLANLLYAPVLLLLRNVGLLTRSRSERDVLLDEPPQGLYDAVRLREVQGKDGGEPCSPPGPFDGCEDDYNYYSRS

Compound | Ki [1] [nM] | Ki [3] [nM] | also measured
CCN(C(=O)C[18F])c1cccc2c1C[C@@H](N1CCC(c3ccccc3)CC1)[C@H](O)C2 | 0.32 |  | 
O=C(c1ccc([18F])cc1)N1CCOC2C[C@@H](O)[C@H](N3CCC(c4ccccc4)CC3)CC21 (mixture of isomers) |  |  | Ki [2]: 27.5 nM
O=C(c1ccc(F)cc1)c1cc2c([nH]1)C[C@@H](N1CCC(c3ccccc3)CC1)[C@H](O)C2 (racemic) |  | 312 | 
O=C(c1ccc(F)cc1)c1cc2c([nH]1)C[C@@H](O)[C@H](N1CCC(c3ccccc3)CC1)C2 (racemic) |  | 7320 | 
O[C@@H]1CCN(Cc2ccc([18F])cc2)C[C@H]1N1CCC(c2ccccc2)CC1 (racemic) | 0.44 |  | 
